According to PMC12282101, “Heat shock protein 90 chaperone activity is required for hepatitis A virus replication” (Journal of Virology, 2025):
Structures can show the parent of a compound that is named as a salt.

Columns and labels:
[1] = system: 18f-NLuc reporter virus; test: microbe, parasite or virus in culture; assay type: cell-based, Hepatitis A virus; conditions: for activity at 10 µM: Hepatovirus A, Huh-7.5.1, 72 h, read-out: Normalized HAV production
[2] = system: Huh-7.5.1 cells; test: Cell viability in the chemical screen (Cell TiterGlo); conditions: 10 µM compound, 72 h

| SMILES | activity at 10 µM [1] [%] | Viability Percent DMSO [2] [Percent DMSO] | Normalized HAV production [1] |
| --- | --- | --- | --- |
| O=c1c2ccccc2[se]n1-c1ccccc1 [Ebselen] | 56 | 123 | – |
| O=C1Nc2ccc(Cl)cc2[C@@](C#CC2CC2)(C(F)(F)F)O1 [Efavirenz] | 46 | 165 | – |
| COc1cc2c(cc1Cc1cccc(Cl)c1F)c(=O)c(C(=O)O)cn2[C@H](CO)C(C)C [Elvitegravir] | 95 | 118 | – |
| C[C@H](NC(=O)C(=O)Nc1ccccc1C(C)(C)C)C(=O)N[C@@H](CC(=O)O)C(=O)COc1c(F)c(F)cc(F)c1F [Emricasan] | 164 | 90 | – |
| CCn1cc(C(=O)O)c(=O)c2cc(F)c(N3CCNCC3)nc21 [Enoxacin] | 89 | 159 | – |
| C=C1[C@H](CO)[C@@H](O)C[C@@H]1n1cnc2c(=O)[nH]c(N)nc21 [Entecavir hydrate] | 93 | 125 | – |
| CCOC(=O)CCC(=O)O[C@H]1[C@H](O[C@@H]2[C@@H](C)[C@H](O[C@H]3C[C@@](C)(OC)[C@@H](O)[C@H](C)O3)[C@@H](C)C(=O)O[C@H](CC)[C@@](C)(O)[C@H](O)[C@@H](C)C(=O)[C@H](C)C[C@@]2(C)O)O[C@H](C)C[C@@H]1N(C)C [Erythromycin ethylsuccinate] | 60 | 107 | – |
| CC[C@@H](CO)NCCN[C@@H](CC)CO [Ethambutol dihydrochloride] | 83 | 112 | – |
| CC[n+]1c(-c2ccccc2)c2cc(N)ccc2c2ccc(N)cc21 [Ethidium bromide] | 4.56 | 85 | – |
| Cc1cc(C#N)cc(C)c1Oc1nc(Nc2ccc(C#N)cc2)nc(N)c1Br [Etravirine] | 113 | 112 | – |
| CC(=O)OCC(CCn1cnc2cnc(N)nc21)COC(C)=O [Famciclovir] | 115 | 123 | – |
| NC(=O)c1nc(F)c[nH]c1=O [Favipiravir] | 56 | 128 | – |
| O=c1[nH]c(=O)n([C@H]2C[C@H](O)[C@@H](CO)O2)cc1F [Floxuridine] | 42 | 86 | – |
| O=S(=O)(CCC(F)=C(F)F)c1ncc(Cl)s1 [Fluensulfone] | – | 128 | 0.97 |
| O=c1[nH]cc(F)c(=O)[nH]1 [Fluorouracil] | 84 | 103 | – |
| COc1ccc([C@H]2OC[C@H]3[C@@H]2CO[C@H]3c2ccc(O[C@@H]3O[C@H](CO)[C@@H](O)[C@H](O)[C@H]3O)c(OC)c2)cc1OC [Forsythin] | – | 127 | 1.06 |
| O=C(O)P(=O)(O)O [Foscarnet sodium] | 109 | 94 | – |
| COc1cnc(-n2cnc(C)n2)c2c1c(C(=O)C(=O)N1CCN(C(=O)c3ccccc3)CC1)cn2COP(=O)(O)O [Fostemsavir] | 92 | 129 | – |
| Nc1nc(O)c2ncn(COC(CO)CO)c2n1 [Ganciclovir] | 87 | 115 | – |
| CC1(C)[C@@H](O[C@H]2O[C@H](C(=O)O)[C@@H](O)[C@H](O)[C@H]2O[C@@H]2O[C@H](C(=O)O)[C@@H](O)[C@H](O)[C@H]2O)CC[C@]2(C)[C@H]3C(=O)C=C4[C@@H]5C[C@@](C)(C(=O)O)CC[C@]5(C)CC[C@@]4(C)[C@]3(C)CC[C@@H]12 [Glycyrrhizin] | 79 | 124 | – |
| Nc1nc2c(ncn2[C@@H]2O[C@H](CO)[C@@H](O)[C@H]2O)c(=O)[nH]1 [Guanosine] | 88 | 126 | – |
| COc1ccnc(C[S+]([O-])c2nc3ccc(-n4cccc4)cc3[n-]2)c1C.[Na+] (centres unmarked) [Ilaprazole sodium] | – | 159 | 0.66 |
| O[C@H]1[C@H](O)[C@@H](O)[C@H](O)[C@@H](O)[C@H]1O [Inositol] | 122 | 93 | – |
| CC(=O)N(CC(O)CO)c1c(I)c(C(=O)NCC(O)CO)c(I)c(C(=O)NCC(O)CO)c1I (centres unmarked) [Iohexol] | 157 | 74 | – |
| O=C(/C=C/c1ccc(O)cc1)c1ccc(O)cc1O [Isoliquiritigenin] | 104 | 100 | – |
| O=C(Nc1nc2ccc3scnc3c2s1)c1ccc2ccccc2c1 [KIN1148] | – | 107 | 1.39 |

| SMILES | activity at 10 µM [1] [%] | Viability Percent DMSO [2] [Percent DMSO] | Normalized HAV production [1] |
| --- | --- | --- | --- |
| Nc1ccn([C@@H]2CS[C@H](CO)O2)c(=O)n1 [Lamivudine] | 86 | 120 | – |
| CC(C)=O.COC(=O)N[C@H](C(=O)N1CC2(CC2)C[C@H]1c1ncc(-c2ccc3c(c2)C(F)(F)c2cc(-c4ccc5nc([C@@H]6[C@H]7CC[C@H](C7)N6C(=O)[C@@H](NC(=O)OC)C(C)C)[nH]c5c4)ccc2-3)[nH]1)C(C)C [Ledipasvir acetone] | – | 172 | 0.48 |
| CC1(C)O[C@H]2CC(=O)OC[C@]23[C@H]2CC[C@@]4(C)[C@H](c5ccoc5)OC(=O)[C@H]5O[C@]54[C@]2(C)C(=O)C[C@@H]13 [Limonin] | 85 | 111 | – |
| CC(C)(C)C#Cc1cc(N(C(=O)[C@H]2CC[C@H](C)CC2)[C@H]2CC[C@H](O)CC2)c(C(=O)O)s1 [Lomibuvir] | 97 | 125 | – |
| NC(=O)N1CCC(CC(=O)N2CCC([C@H]3c4ncc(Br)cc4CCc4cc(Cl)cc(Br)c43)CC2)CC1 [Lonafarnib] | 18 | 167 | – |
| Cc1cccc(C)c1OCC(=O)N[C@@H](Cc1ccccc1)[C@@H](O)C[C@H](Cc1ccccc1)NC(=O)[C@H](C(C)C)N1CCCNC1=O [Lopinavir] | 43 | 126 | – |
| CC(C)c1cc(Oc2c(Cl)cc(-n3nc(C#N)c(=O)[nH]c3=O)cc2Cl)n[nH]c1=O [MGL3196] | 136 | 118 | – |
| CCOC(=O)c1c(C)n(C)c2ccc(O)cc12 [Mecarbinate] | – | 100 | 1.17 |
| COc1cc(NC(=O)Nc2cccc(CNC(=O)O[C@H]3CCOC3)c2)ccc1-c1cnco1 [Merimepodib] | 34 | 159 | – |
| Cl.N=C(N=C(N)N)N1CCOCC1 [Moroxydine hydrochloride] | – | 125 | 1.21 |
| CCCCCCCCCC(=O)O[C@H]1CC[C@H]2[C@@H]3CCC4=CC(=O)CC[C@@H]4[C@H]3CC[C@]12C [Nandrolone decanoate] | 117 | 113 | – |
| O=C1C[C@@H](c2ccc(O)cc2)Oc2cc(O)cc(O)c21 [Naringenin] | 86 | 112 | – |
| C[C@@H]1O[C@@H](O[C@H]2[C@H](Oc3cc(O)c4c(c3)O[C@H](c3ccc(O)cc3)CC4=O)O[C@H](CO)[C@@H](O)[C@@H]2O)[C@H](O)[C@H](O)[C@H]1O [Naringin] | 124 | 115 | – |
| Cc1c(O)cccc1C(=O)N[C@@H](CSc1ccccc1)[C@H](O)CN1C[C@H]2CCCC[C@H]2C[C@H]1C(=O)NC(C)(C)C [Nelfinavir Mesylate] | 69 | 88 | – |
| Cc1ccnc2c1NC(=O)c1cccnc1N2C1CC1 [Nevirapine] | 104 | 100 | – |
| CC(=O)Oc1ccccc1C(=O)Nc1ncc([N+](=O)[O-])s1 [Nitazoxanide] | 24 | 41 | – |
| CC1(C)CC[C@]2(C(=O)O)CC[C@]3(C)C(=CC[C@@H]4[C@@]5(C)CC[C@H](O)C(C)(C)[C@@H]5CC[C@]43C)[C@@H]2C1 [Oleanolic Acid] | 82 | 118 | – |
| CC1(C)CC[C@]2(C(=O)O)CC[C@]3(C)C(=CC[C@@H]4[C@@]5(C)CCC(=O)C(C)(C)[C@@H]5CC[C@]43C)[C@@H]2C1 [Oleanonic Acid] | 935 | 1.23 | – |
| O=C(O)c1cc(=O)[nH]c(=O)[nH]1 [Orotic acid] | 85 | 105 | – |
| O=C(Nc1ccc(O)cc1)c1ccccc1O [Osalmid] | 132 | 93 | – |
| CN(C(=O)CN(CCO)CC(=O)N(C)C(C)(C)Cc1ccccc1)C(C)(C)Cc1ccccc1 [Oxethazaine] | 76 | 102 | – |
| O=C1CCC[C@@H]2[C@H]3CCC[N+]4([O-])CCC[C@@H](CN12)[C@@H]34 (some centres unmarked) [Oxymatrine] | 100 | 92 | – |
| CN(C)[C@@H]1C(O)=C(C(N)=O)C(=O)[C@@]2(O)C(O)=C3C(=O)c4c(O)cccc4[C@@](C)(O)[C@H]3[C@H](O)[C@@H]12 [Oxytetracycline] | 87 | 103 | – |
| C[C@@]1(F)[C@H](O)[C@@H](CO)O[C@H]1n1ccc(=O)[nH]c1=O [PSI6206] | – | 104 | 1.52 |
| Cc1cnc(C(=O)N[C@H]2CCCCC/C=C\[C@@H]3C[C@@]3(C(=O)NS(=O)(=O)C3CC3)NC(=O)[C@@H]3C[C@@H](Oc4nc5ccccc5c5ccccc45)CN3C2=O)cn1 [Paritaprevir] | 64 | 91 | – |
| C[C@H]1CC[C@@]2(O)C(C)(C)[C@@H]3CC[C@@]2(C)[C@H]1C3 [Patchouli alcohol] | – | 122 | 1.10 |
